For 7 molecules, IC50 and fraction unbound results are on record in patent US20260217698A1 (BEYANG THERAPEUTICS CO., LTD., priority 2022, published 2026).

One data set deals with T1, EGFR (Homo sapiens, UniProt P00533).
T1 construct: purchased Carna 08-115
In words: Kinase inhibition, Mobility Shift Assay/IMAP, EGFR. It is filed as biochemical. In a few lines: (§1)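 Substrate conversion (phosphorylated vs non-phosphorylated) read by mobility shift on Caliper EZ Reader II and converted to % inhibition relative to no-enzyme and DMSO controls. IC50 fitted from % inhibition versus log compound concentration.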

Another data set relates to HUVEC cells. In words: Inhibition of VEGF-induced HUVEC cell proliferation, CellTiter Glo. It is filed as cell-based. Conditions: Homo sapiens, 20 ng/ml VEGF, 72 hours. In a few lines:
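HUVEC (4000/well) serum-starved overnight in RPMI-1640 with 5% FBS, compound added 1 h before VEGF (20 ng/ml final in controls). After 72 h at 37 °C, viable cells were quantified by CellTiter-Glo luminescence; % inhibition fitted against log concentration, DMSO+VEGF wells as high control and cell-free wells as low.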
A general note: In ATP-based viability assays light output follows the ATP content of the culture.

The subject of the next data set is melanin. In words: Binding capacity of compounds to melanin. The class given is in vitro ADME, cuttlefish (Sepia officinalis). The settings on record: cuttlefish (Sepia officinalis), melanin suspension (1 mg/mL); 1 mg/mL melanin in PBS pH 7.4, 2 μM compound, 2 h at 37° C.; read-out: Fu % (percentage of free drug). In a few lines: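 Compound (2 μM final) incubated with washed Sepia melanin (1 mg/mL, PBS pH 7.4) 2 h at 37° C with shaking; PBS with 0.1% BSA served as blank. Supernatants quantified by LC-MS/MS; bound fraction Fb derived from melanin versus blank concentration.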

In the next data set the target is VEGFR2 (Homo sapiens, UniProt P35968). Put plainly: Kinase inhibition, Mobility Shift Assay/IMAP, VEGFR2. It is filed as biochemical. Set-up: purchased Carna 08-191. In a few lines: as §1
Chain of VEGFR2 (P35968 790-1356 limits assumed): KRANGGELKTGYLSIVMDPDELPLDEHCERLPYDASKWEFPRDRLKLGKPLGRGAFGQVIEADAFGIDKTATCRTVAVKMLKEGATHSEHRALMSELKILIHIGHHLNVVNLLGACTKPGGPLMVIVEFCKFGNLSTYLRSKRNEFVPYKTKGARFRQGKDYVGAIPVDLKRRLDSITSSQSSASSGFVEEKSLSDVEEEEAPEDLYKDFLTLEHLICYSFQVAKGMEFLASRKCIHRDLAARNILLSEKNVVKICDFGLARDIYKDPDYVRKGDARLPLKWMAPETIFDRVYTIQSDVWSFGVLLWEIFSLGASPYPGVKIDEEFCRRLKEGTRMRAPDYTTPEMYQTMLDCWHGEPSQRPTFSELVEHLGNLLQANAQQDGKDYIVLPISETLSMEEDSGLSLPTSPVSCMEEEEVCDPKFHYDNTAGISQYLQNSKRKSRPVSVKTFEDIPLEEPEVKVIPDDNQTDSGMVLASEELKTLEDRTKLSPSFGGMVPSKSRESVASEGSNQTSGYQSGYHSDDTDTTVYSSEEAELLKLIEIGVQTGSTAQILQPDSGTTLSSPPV

Some results are limits rather than exact numbers.

Usually IC50 stands for the concentration that gives 50% inhibition.

T1 sequence (P00533 669-1210 limits assumed): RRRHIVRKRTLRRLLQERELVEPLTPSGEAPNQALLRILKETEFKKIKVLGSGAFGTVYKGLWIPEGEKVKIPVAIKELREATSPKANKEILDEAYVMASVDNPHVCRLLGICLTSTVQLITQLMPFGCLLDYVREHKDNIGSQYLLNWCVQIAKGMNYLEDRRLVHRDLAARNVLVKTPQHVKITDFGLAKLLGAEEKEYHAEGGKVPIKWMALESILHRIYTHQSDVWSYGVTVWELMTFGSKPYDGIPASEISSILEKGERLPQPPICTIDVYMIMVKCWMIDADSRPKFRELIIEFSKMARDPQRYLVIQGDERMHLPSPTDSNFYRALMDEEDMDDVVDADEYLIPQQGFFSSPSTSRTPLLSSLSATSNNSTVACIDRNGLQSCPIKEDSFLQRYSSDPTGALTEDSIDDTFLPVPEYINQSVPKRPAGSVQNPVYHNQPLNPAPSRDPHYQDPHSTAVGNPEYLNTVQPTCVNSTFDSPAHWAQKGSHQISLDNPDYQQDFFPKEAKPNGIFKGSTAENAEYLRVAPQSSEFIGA

On to `NC(=O)c1c(OCc2cc(C(=O)NC3CC3)ccc2F)nsc1NC(=O)NCCCCN1CCCC1` [Compound T087, 3-[[5-(cyclopropylcarbamoyl)-2-fluoro-phenyl]methoxy]-5-(4-pyrrolidin-1-ylbutylcarbamoylamino)isothiazole-4-carboxamide], for which the values for the IC50 at EGFR, in the data set with HUVEC cells and on VEGFR2 were 15200 nM, 45.4 nM and 1.66 nM, respectively. In the data set on melanin, the fraction unbound at 2 h, 2 μM amounted to 0.0374.
Consider `NC(=O)c1c(OCc2cc3c(cc2F)CCO3)nsc1NC(=O)NCCCCN1CC[C@@H](O)C1` [Compound T091, 3-[(5-fluoro-2,3-dihydrobenzofuran-6-yl)methoxy]-5-[4-[(3R)-3-hydroxypyrrolidin-1-yl]butylcarbamoylamino] isothiazole-4-carboxamide], for which the half-maximal inhibitory concentration (IC50) was 9890 nM on EGFR, 36 nM in the data set on HUVEC cells and 3.03 nM on VEGFR2. In the data set with melanin, the fraction unbound at 2 h, 2 μM came to 0.0286.
For `CN1CCN(CCCNC(=O)Nc2snc(OCc3cc4c(cc3F)CCO4)c2C(N)=O)CC1` [Compound T101, 3-[(5-fluoro-2,3-dihydrobenzofuran-6-yl)methoxy]-5-[3-(4-methylpiperazin-1-yl)propylcarbamoylamino] isothiazole-4-carboxamide], the results for the half-maximal inhibitory concentration (IC50) at EGFR, in the data set on HUVEC cells and on VEGFR2 were 9160 nM, 48.6 nM and 4.85 nM, respectively. For the same molecule, the fraction unbound at 2 h, 2 μM in the data set on melanin was determined as 0.0702.
On to `NC(=O)c1c(OCc2cc(C(=O)NC3CC3)ccc2F)nsc1NC(=O)NCCCN1CC[C@H](F)C1` [Compound T116, 3-[[5-(cyclopropylcarbamoyl)-2-fluoro-phenyl]methoxy]-5-[3-[(3S)-3-fluoropyrrolidin-1-yl]propylcarbamoylamino]isothiazole-4-carboxamide], for which the results for the concentration for half-maximal inhibition (IC50) on EGFR, in the data set on HUVEC cells and at VEGFR2 were 18000 nM, 21 nM and 1.14 nM, respectively. In addition, in the data set on melanin, the fraction unbound at 2 h, 2 μM was determined as 0.0376.
With `CN1CCN(CCCNC(=O)Nc2snc(OCc3cc(C(=O)NC4CC4)ccc3F)c2C(N)=O)CC1` [Compound T118, 3-[[5-(cyclopropylcarbamoyl)-2-fluoro-phenyl]methoxy]-5-[3-(4-methylpiperazin-1-yl)propylcarbamoylamino]isothiazole-4-carboxamide], the IC50 was 8960 nM on EGFR, 39 nM in the data set on HUVEC cells and 1.15 nM on VEGFR2. Moreover, the fraction unbound at 2 h, 2 μM with melanin was determined as 0.111.
In the case of `NC(=O)c1c(OCc2cc(C(=O)NC3CC3)ccc2Cl)nsc1NC(=O)NCCCCN1CCCC1` [Compound T123, 3-[[2-chloro-5-(cyclopropylcarbamoyl)phenyl]methoxy]-5-(4-pyrrolidin-1-ylbutylcarbamoylamino)isothiazole-4-carboxamide], the half-maximal inhibitory concentration (IC50) at EGFR stood at 26900 nM; in the data set with HUVEC cells it was 17.1 nM; at VEGFR2, 0.63 nM. In addition, the fraction unbound at 2 h, 2 μM with melanin turned out to be 0.0298.
For `NC(=O)c1c(OCc2c(F)ccc(C(=O)NC3CC3)c2F)nsc1NC(=O)NCCCCN1CCCC1` [Compound T124, 3-[[3-(cyclopropylcarbamoyl)-2,6-difluoro-phenyl]methoxy]-5-(4-pyrrolidin-1-ylbutylcarbamoylamino)isothiazole-4-carboxamide], in that order: over 60000 nM, 43.6 nM, 2.2 nM and 0.0707.
